Patent US20240060040A1, “METHODS FOR GENERATING INNER EAR HAIR CELLS” (Ear Science Institute Australia, priority 2020, published 2024)

Tests used:
Format in all cases: cell-based
[1] = tested on: Human iPSCs derived inner ear organoid; assay: SOX2 and Tuj1 expression by confocal microscopy; settings: day 33-60; FIG. 18
Description: (§1) FIG. 1 illustrates methods for generating inner ear hair cells from the induced pluripotent stem cells. The inventor added a combination of agents and inhibitors at developmental stages of the inner ear organoid culture to produce the invention. In particular: • (i) ROCK inhibitor (Y-27632) is added to iPSC in suspension culture to promote the formation of three-dimensional embryoid bodies for about 3 days. • (ii) TGF-β inhibitor (SB-431542) is added at low concentration of FGF to drive the development of non-neural ectoderm in days 0 to 3. • (iii) The cultures are then transitioned to medium containing a high concentration of FGF and BMP inhibitor (LDN-193189) during days 4-7, which drives development of the early pre-otic placodal epithelium/pre-placodal ectoderm. • (iv) Next, Wnt agonist (CHIR-99021) is added to stimulate development of otic placode from days 8-11, otic pit formation from days 12-14 and otic prosensory vesicles from days 15-17. • (v) From days 18-32, hedgehog signalling inhibitor (CYC, GANT58 or GANT61) is added to promote the formation of sensory epithelium vesicles, and continued culture under these conditions results in the formation of sensory hair cells with neural innervation from day 33 onwards.
To identify the development of sensory hair cells of inner ear organoids at Day 33-60, the SOX2 and Tuj1 expression in organoids was observed by using confocal microscopy. The results are presented in FIG. 18, which compares organoids developed using (a) the method of Example 1 with cyclopamine (Example 2), and (b) the method of Example 1 with GANT58 (Example 3) and GANT61 (Example 4).

[2] = tested on: Human iPSCs derived inner ear organoid; assay: ECAD and PAX2 expression by confocal microscopy (ectodermal cell fate); settings: day 20; treated aggregates, compared with Koehler method
Description: as §1
To identify the ectodermal cell fate of inner ear organoids at Day 20-40, the ECAD and PAX2 expression in organoids was observed by using confocal microscopy, comparing organoids developed using (a) Koehler's method without Hh inhibitors, (b) the method of Example 1 with cyclopamine as the SHH inhibitor (Example 2), (c) the method of Example 1 with GANT58 as the SHH inhibitor (Example 3) and (d) the method of Example 1 with GANT61 as the SHH inhibitor (Example 4). […] The ectodermal cell fate of the inner ear organoids developed better with the SHH inhibitors compared with the Koehler method. […] The formation of ectodermal cell appeared to be continuous, beginning on day 7 until approximately day 20-40.

[3] = tested on: Human iPSCs derived inner ear organoid; assay: Single cell RNA sequencing and TaqMan qRT-PCR cell fate analysis; settings: for inner ear hair cell differentiation in comparison with organoids developed using the Koehler method: RNA sequencing and TaqMan qRT-PCR, FIGS. 15 and 16; for hair cell and neuronal markers by single cell RNA sequencing: organoids at Day 60, Koehler method ~57.88%
Description: FIG. 1 illustrates methods for generating inner ear hair cells from the induced pluripotent stem cells. The inventor added a combination of agents and inhibitors at developmental stages of the inner ear organoid culture to produce the invention.
To verify the hair cell marker genes in RNAseq transcriptome analysis, quantitative TaqMan® real-time polymerase chain reaction (qRT-PCR) in inner ear organoids was performed to identify the level of hair cell gene expression. FIG. 15 illustrates sensory hair cell-specific gene expression analysis on human iPSCs derived inner ear organoid at Day 60 by single cell RNA sequencing transcriptome analysis. FIG. 16 illustrates otic epithelial-specific gene expression in inner ear organoids at Day 20 and inner ear sensory cell-specific gene expression in inner ear organoids at Day 60 by TaqMan® qRT-PCR analyses. The presence of MyoVI represents inner ear hair cell differentiation.

[4] = tested on: Human iPSCs derived inner ear organoid; assay: MyosinVIIa and Tuj1 immunostaining with confocal imaging (sensory hair cells and nerve innervation); settings: for sensory hair cells and supporting cells in organoids / sensory hair cells and neuronal cells in organoids: day 33-60; for sensory hair cells and supporting cells in organoids: FIG. 14; for sensory hair cells and neuronal cells in organoids: FIG. 17; for inner ear hair cells and nerve innervation detected: inhibitor 1 μM from day 18, removed day 33, 10% Matrigel
Description: as §1
On day 18, the SHH inhibitor cyclopamine (CAT 239803 from Merck Millipore) was added to the cell culture to reach a final concentration of 1 μM. Matrigel® was also added to the cell culture to reach a concentration of 10%. The cells were cultured in organoid maturation medium until day 33.
On day 33, the cyclopamine was removed from the medium by washing and the droplet aggregates were remained in the cell culture containing 10% Matrigel®.
The cells were then cultured for up to 200 days in the Organoid Maturation Medium containing 10% Matrigel®. 200 μL of medium was changed daily for each well. The cells were cultured until 60-100 days, until an examination of the cell's morphology determined maturation. The viable, medium size and round 3D shape organoids with inner ear sensory cell gene expression markers were selected for analysis.
Inner ear hair cells and nerve innervation was detected after Day 35. The presence and number of inner ear hair cells was detected by immunostaining and capture with confocal imaging.
(§2) To identify the development of sensory hair cells of inner ear organoids at Day 33-60, the MyosinVIIa and Tuj1 expression in organoids was observed by using confocal microscopy. The results are presented in FIG. 14, which compares organoids developed using (a) the method of Example 1 with cyclopamine (Example 2), and (b) the method of Example 1 with GANT58 (Example 2). […] An opaque outer cell mass is indicative of complete re-organization, which was found in organoids developed using each of the SHH inhibitors. In comparison, less translucent epithelium indicative of incomplete or partial re-organization was found in organoids developed using the Koehler method. Sensory hair cell epithelium through the aggregate surface was found in organoids developed using each SHH inhibitor.
as §2, with “MyoVIIa” for “MyosinVIIa”, “17,” for “14,”, “3) and GANT61 (Example 4).” for “2).”, “inhibitors.” for “inhibitors. In comparison, less translucent epithelium indicative of incomplete or partial re-organization was found in organoids developed using the Koehler method.”

Compound	supporting cells and neuronal cells in organoids [1]	abundance of ECAD/PAX2 positive vesicles with a luminal diameter greater than 50 μm [2]	inner ear hair cell differentiation in comparison with organoids developed using the Koehler method [3]	hair cell and neuronal markers by single cell RNA sequencing [3]	sensory hair cells and supporting cells in organoids [4]	sensory hair cells and neuronal cells in organoids [4]	inner ear hair cells and nerve innervation detected [4]
c1cc(-c2sc(-c3ccncc3)c(-c3ccncc3)c2-c2ccncc2)ccn1 [GANT58]	present	higher abundance	greater inner ear hair cell differentiation	~91.88%	present	present	> 35 days
CC1=C2C[C@H]3[C@@H](CC=C4C[C@@H](O)CC[C@@]43C)[C@@H]2CC[C@]12O[C@@H]1C[C@H](C)CN[C@H]1[C@H]2C [cyclopamine]	present	higher abundance	greater inner ear hair cell differentiation	~74.48%	present	present	> 35 days
CN(C)c1ccccc1CN1CCCN(Cc2ccccc2N(C)C)C1c1ccncc1 [GANT61]	present	higher abundance	greater inner ear hair cell differentiation	–	–	present	> 35 days
